For experiment [1], the system named is L1210. Briefly: Cytotoxicity against mouse L1210 cells assessed as decrease in cell viability at 5 ug. The experiment is classed as functional.
The subject of experiment [2] is Micrococcus luteus. Description: Antibacterial activity against Micrococcus luteus assessed as inhibition zone at 20 ug. To be noted: read-out: IZ. The experiment is classed as functional.
The subject of experiment [3] is Escherichia coli. Description: Antibacterial activity against Escherichia coli assessed as inhibition zone at 50 ug/disk. To be noted: read-out: IZ. The experiment is classed as functional.
Experiment [4] has as its system Staphylococcus aureus. Briefly: Antibacterial activity against Staphylococcus aureus assessed as inhibition zone at 50 ug/disk. To be noted: read-out: IZ. The experiment is classed as functional.
The test system of experiment [5] is V79. Description: Cytotoxicity against chinese hamster V79 cells. The experiment is classed as cell-based. To be noted: Cricetulus griseus.
Experiment [6] deals with L1210. Description: Cytotoxicity against mouse L1210 cells. The experiment is classed as functional, cell-based.
Experiment [7] is described as follows: Inhibition of protein kinase A (unknown origin). On the set-up: species or system Homo sapiens.
Experiment [8] in a line: Antioxidant activity of the compound. The experiment is classed as functional.
Experiment [9] concerns SF-268. Description: Cytotoxicity against human SF268 cells assessed as cell killing at 50 uM relative to control. The experiment is classed as functional.
Experiment [10] relates to T-cell. Description: Inhibition of ConA-induced cell proliferation of BALB/c mouse T-lymphocytes assessed as reduction in [3H]thymidine incorporation incubated for 48 hrs by beta scintillation counting method. The experiment is classed as functional. Background: Incorporation of labelled thymidine or its analogues reports DNA synthesis.
The subject of experiment [11] is Mucor hiemalis. Description: Antifungal activity against Mucor hiemalis assessed as inhibition zone at 50 ug/disk. To be noted: read-out: IZ. The experiment is classed as functional.
For experiment [12], the system named is Ruegeria atlantica. Description: […] activity against Ruegeria atlantica assessed as inhibition zone at 50 ug/disk. To be noted: read-out: IZ. The experiment is classed as functional.
The test system of experiment [13] is Saccharomyces cerevisiae. Briefly: Antifungal activity against Saccharomyces cerevisiae assessed as inhibition zone at 50 ug/disk. The experiment is classed as functional. To be noted: read-out: IZ.
Experiment [14] concerns Cercospora sojina. Description: Antifungal activity against Cercospora sojina assessed as inhibition zone at 100 ug/hole. The experiment is classed as functional.
Experiment [15] concerns Aspergillus niger. Briefly: Antifungal activity against Aspergillus niger assessed as inhibition zone at 100 ug/hole. The experiment is classed as functional.
Experiment [16] relates to Fusarium oxysporum. Description: Antifungal activity against Fusarium oxysporum assessed as inhibition zone at 100 ug/hole. The experiment is classed as functional.
Experiment [17] deals with Staphylococcus aureus. Briefly: Antibacterial activity against Staphylococcus aureus ATCC 6538 after 24 hrs by serial dilution method. The experiment is classed as functional. To be noted: ATCC 6538, 24 h.
In experiment [18] the test system is Pseudomonas aeruginosa. Description: Antibacterial activity against Pseudomonas aeruginosa ATCC 10145 after 24 hrs by serial dilution method. The experiment is classed as functional. To be noted: ATCC 10145, 24 h.
Experiment [19] deals with Escherichia coli. Description: Antibacterial activity against Escherichia coli ATCC 10536 after 24 hrs by serial dilution method. The experiment is classed as functional. To be noted: ATCC 10536, 24 h.
Experiment [20] concerns Micrococcus luteus. Briefly: Antibacterial activity against Micrococcus luteus ATCC 9341 after 24 hrs by serial dilution method. The experiment is classed as functional. To be noted: ATCC 9341, 24 h.
The subject of experiment [21] is Bacillus subtilis. Briefly: Antibacterial activity against Bacillus subtilis ATCC 6051 after 24 hrs by serial dilution method. The experiment is classed as functional. To be noted: ATCC 6051, 24 h.
Experiment [22] deals with Mu-type opioid receptor (Homo sapiens) (UniProt P35372). Description: Inhibition of mu opioid receptor (unknown origin) at 10 uM.
Chain of Mu-type opioid receptor (Homo sapiens) (P35372 whole entry): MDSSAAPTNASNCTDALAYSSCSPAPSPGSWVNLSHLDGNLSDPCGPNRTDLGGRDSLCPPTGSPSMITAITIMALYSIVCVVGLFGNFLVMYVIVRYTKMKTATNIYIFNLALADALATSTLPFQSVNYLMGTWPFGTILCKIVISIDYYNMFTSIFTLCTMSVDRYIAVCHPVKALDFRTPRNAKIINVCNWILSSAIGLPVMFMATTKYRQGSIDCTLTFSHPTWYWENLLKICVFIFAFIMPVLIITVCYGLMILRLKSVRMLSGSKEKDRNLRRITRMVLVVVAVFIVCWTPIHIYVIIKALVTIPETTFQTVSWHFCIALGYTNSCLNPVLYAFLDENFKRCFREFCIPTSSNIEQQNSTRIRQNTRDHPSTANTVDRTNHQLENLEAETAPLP
The target of experiment [23] is Sodium-dependent noradrenaline transporter (Homo sapiens) (UniProt P23975). Description: Inhibition of norepinephrine transporter (unknown origin) at 10 uM.
Chain of Sodium-dependent noradrenaline transporter (Homo sapiens) (P23975 whole entry): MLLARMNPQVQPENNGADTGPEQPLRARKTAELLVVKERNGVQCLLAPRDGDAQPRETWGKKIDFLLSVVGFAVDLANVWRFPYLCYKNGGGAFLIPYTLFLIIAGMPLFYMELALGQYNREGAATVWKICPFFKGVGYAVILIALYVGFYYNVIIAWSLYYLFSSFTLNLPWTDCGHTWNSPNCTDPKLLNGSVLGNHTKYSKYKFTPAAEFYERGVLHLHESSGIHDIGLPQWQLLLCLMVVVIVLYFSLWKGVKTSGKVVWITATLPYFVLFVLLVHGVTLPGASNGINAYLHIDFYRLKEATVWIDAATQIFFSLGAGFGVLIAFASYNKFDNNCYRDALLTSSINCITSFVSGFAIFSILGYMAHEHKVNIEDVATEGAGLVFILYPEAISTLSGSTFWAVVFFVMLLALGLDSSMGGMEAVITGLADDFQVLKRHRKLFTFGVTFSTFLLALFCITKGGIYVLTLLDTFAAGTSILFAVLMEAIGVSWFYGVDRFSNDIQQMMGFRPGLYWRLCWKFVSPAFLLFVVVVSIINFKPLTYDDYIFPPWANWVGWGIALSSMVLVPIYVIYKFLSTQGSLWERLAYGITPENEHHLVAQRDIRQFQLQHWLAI
Experiment [24] deals with Sodium-dependent serotonin transporter (Homo sapiens) (UniProt P31645). Description: Inhibition of serotonin transporter (unknown origin) at 10 uM.
Chain of Sodium-dependent serotonin transporter (Homo sapiens) (P31645 whole entry, looked up): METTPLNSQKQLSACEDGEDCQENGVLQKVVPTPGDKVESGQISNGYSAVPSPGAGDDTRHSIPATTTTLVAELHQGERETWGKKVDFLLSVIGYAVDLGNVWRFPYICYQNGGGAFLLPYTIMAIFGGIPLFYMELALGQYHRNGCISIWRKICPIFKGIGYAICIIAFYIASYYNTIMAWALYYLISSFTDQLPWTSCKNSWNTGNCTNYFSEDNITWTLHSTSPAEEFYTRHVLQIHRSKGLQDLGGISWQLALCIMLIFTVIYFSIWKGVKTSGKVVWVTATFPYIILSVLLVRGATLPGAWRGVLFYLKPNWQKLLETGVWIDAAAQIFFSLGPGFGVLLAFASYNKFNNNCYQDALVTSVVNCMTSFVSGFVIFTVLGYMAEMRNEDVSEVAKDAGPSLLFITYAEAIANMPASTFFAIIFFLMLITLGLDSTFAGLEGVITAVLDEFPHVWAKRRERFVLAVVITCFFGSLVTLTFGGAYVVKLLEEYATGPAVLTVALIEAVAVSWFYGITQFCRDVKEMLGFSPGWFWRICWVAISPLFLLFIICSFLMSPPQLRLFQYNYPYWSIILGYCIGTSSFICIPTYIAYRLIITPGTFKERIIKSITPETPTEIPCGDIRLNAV
For experiment [25], the target named is Sodium-dependent dopamine transporter (Homo sapiens) (UniProt Q01959). Description: Inhibition of dopamine transporter (unknown origin) at 10 uM.
Chain of Sodium-dependent dopamine transporter (Homo sapiens) (Q01959 whole entry): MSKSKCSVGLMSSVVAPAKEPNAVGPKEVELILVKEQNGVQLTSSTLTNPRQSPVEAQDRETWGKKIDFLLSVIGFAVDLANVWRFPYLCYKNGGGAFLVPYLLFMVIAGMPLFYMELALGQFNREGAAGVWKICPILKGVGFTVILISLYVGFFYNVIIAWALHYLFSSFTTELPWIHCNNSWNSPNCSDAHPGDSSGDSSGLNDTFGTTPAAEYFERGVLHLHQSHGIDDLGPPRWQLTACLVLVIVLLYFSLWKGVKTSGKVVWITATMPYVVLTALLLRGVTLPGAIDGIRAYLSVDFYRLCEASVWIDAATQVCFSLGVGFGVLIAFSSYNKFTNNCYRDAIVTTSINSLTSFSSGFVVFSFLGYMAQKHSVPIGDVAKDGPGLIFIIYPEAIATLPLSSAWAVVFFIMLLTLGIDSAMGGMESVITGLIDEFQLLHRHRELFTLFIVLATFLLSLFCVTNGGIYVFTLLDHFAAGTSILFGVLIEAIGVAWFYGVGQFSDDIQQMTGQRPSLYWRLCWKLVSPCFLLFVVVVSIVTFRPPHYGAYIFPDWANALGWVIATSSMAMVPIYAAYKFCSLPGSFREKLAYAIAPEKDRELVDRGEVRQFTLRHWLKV
Experiment [26] relates to Human alphaherpesvirus 1. Briefly: Antiviral activity against HSV1. The experiment is classed as functional, organism-based.
Experiment [27] relates to Pyricularia oryzae. Description: Antimicrobial activity against Pyricularia orizae. The experiment is classed as functional.

In brackets after ≈: the same amount, converted by molar mass.

For the compound `N[C@@H]1CSCON2CCc3c([nH]c4ccc(O)c(Br)c34)[C@H]12` [EUDISTOMIN E], in experiment [1], the Activity is reported as 100%. The zone of inhibition at 20 µg/disc in [2] came out at 46 mm.

`COc1cc(CCN(C)C)c2sc3c(O)c(OC)cc(CCN(C)C)c3ssc2c1O` [LISSOCLIBADIN 4]: the zone of inhibition at 50 µg/disc in experiment [3] came to 15.7 mm; in experiment [4] it was 13.1 mm.

On to `COc1cc(CCN(C)C)c2c(c1O)SSSSS2` [ISOLISSOCLINOTOXIN B], for which the results for the IC50 in experiment [5] and in [6] were 0.25 µM and 0.64 µM, respectively.

As for `COc1c(OC)c2c(c(CCN)c1SC)SSSSS2`, in experiment [7], the 50% inhibitory concentration (IC50) was greater than 25 µg/mL.

Take `CC[C@H](C)C1=C(O)[N@@+]2([O-])Oc3ccc(-c4c(O)c(O)c(-c5ccc(O)cc5)c(OC(C)=O)c4OC(C)=O)cc3O[C@@]2([C@@H](C)CC)C(=O)N1OC`: in experiment [8], half-maximal inhibition (IC50) was put at 29.1 µM.

`COc1cc(CCN(C)C)c2c(c1O)SSC(C)S2` (stereo not drawn): the figures for the half-maximal inhibitory concentration (IC50) in experiment [5] and in experiment [6] were 0.14 µM and 0.7 µM, respectively.

For `CC[C@H](C)C1=C(OC(C)=O)[N@+]2([O-])Oc3ccc(-c4c(O)c(O)c(-c5ccc(OC(C)=O)cc5)c(OC(C)=O)c4OC(C)=O)cc3O[C@@]2([C@@H](C)CC)C(=O)N1O`, the Activity in [9] is 93%.

For `COC1=C[C@@H](C)O[C@@H](O[C@H]2CC[C@@]3(C)C(=CC[C@@H]4[C@@H]3CC[C@@]3(C)[C@H]4CC[C@]3(O)[C@H](C)O[C@H]3C[C@H]4OCO[C@@]5(C[C@@H](OC)[C@H](O[C@H]6C[C@H](O)[C@H](O[C@H]7C[C@@H](O)[C@H](O[C@H]8C[C@H](OC)[C@H](O[C@@H]9O[C@H](C)[C@H](O)[C@H](OC)[C@H]9OC(C)=O)[C@@H](C)O8)[C@@H](C)O7)[C@@H](C)O6)[C@@H](C)O5)O[C@@H]4[C@@H](C)O3)C2)C1=O`, the IC50 in experiment [10] was 0.29 to 1.97 µM.

In the case of `COc1c(OC)c2c(c(CCN(C)C)c1SC)SSS2`, the IC50 in experiment [7] was greater than 25 µg/mL; in [5] it was 0.19 µM. Besides, the zone of inhibition at 50 µg/disc in experiment [11], in experiment [12], in experiment [13], in [3] and in experiment [4] was 10.3 to 32.4 mm each time.

Consider `CO[C@H]1C[C@H](O[C@H]2[C@@H](OC)C[C@H](O[C@H]3[C@H](O)C[C@H](O[C@H]4[C@@H](OC)C[C@H](O[C@@H]5[C@@H](C)O[C@@]6(C[C@H]5OC)OCO[C@@H]5C[C@H](O[C@@H](C)[C@@]7(O)CC[C@H]8[C@@H]9CC=C%10C[C@@H](O)CC[C@]%10(C)[C@H]9CC[C@@]87C)O[C@H](C)[C@H]5O6)O[C@@H]4C)O[C@@H]3C)O[C@@H]2C)O[C@H](C)[C@H]1OC(C)=O`, for which the IC50 in experiment [10] was 0.29 to 1.97 µM.

On to `CC[C@H](C)C1=C(O)[N@@+]2([O-])Oc3ccc(-c4c(O)c(O)c(-c5ccc(OC(C)=O)cc5)c(OC(C)=O)c4OC(C)=O)cc3O[C@@]2([C@@H](C)CC)C(=O)N1O`, for which the Activity in [9] was 95%.

`CC(=O)O[C@H]1CC[C@]23C[C@]24CC[C@]2(C)[C@@H]([C@H](C)CCC5OOC(C)(C)O5)CC[C@@]2(C)[C@@H]4CC[C@H]3C1(C)C` (stereo partly drawn): the “inhibition zone (IZ)” value in [14], in [15] and in experiment [16] was 2 mm throughout.

Regarding `COC1=C[C@@H](C)O[C@@H](O[C@H]2CC[C@@]3(C)C(=CC[C@@H]4[C@@H]3CC[C@@]3(C)[C@H]4CC[C@]3(O)[C@H](C)O[C@H]3C[C@H]4OCO[C@@]5(C[C@@H](OC)[C@H](O[C@H]6C[C@H](OC)[C@H](O[C@H]7C[C@@H](O)[C@H](O[C@H]8C[C@H](OC)[C@H](O[C@H]9C[C@@H](OC)[C@H](O)[C@@H](C)O9)[C@@H](C)O8)[C@@H](C)O7)[C@@H](C)O6)[C@@H](C)O5)O[C@@H]4[C@@H](C)O3)C2)C1=O`, the IC50 in experiment [10] lay in the range of 0.29 to 1.97 µM.

With `Cc1cc(=O)n2nc(CC(=O)c3ccccc3)nc2[nH]1` [ESSRAMYCIN], the minimal inhibitory concentration (MIC) in experiment [17], in experiment [18], in experiment [19], in experiment [20] and in [21] was 1 to 8 µg/mL (≈ 3.73 to 29.8 µM) throughout.

`COc1c(OC)c2c(c(CCN)c1SC)SSS2` registered a half-inhibitory concentration (IC50) in experiment [7] greater than 25 µg/mL.

Turning to `NCCc1cc(O)c(O)c2c1SSSSS2`, the half-inhibitory concentration (IC50) in experiment [7] is greater than 25 µg/mL.

The compound `CC[C@H](C)C1=C(O)[N@+]2([O-])Oc3ccc(-c4c(O)c(O)c(-c5ccc(O)cc5)c(OC(C)=O)c4OC(C)=O)cc3O[C@@]2([C@@H](C)CC)C(=O)N1OC` had a half-maximal inhibitory concentration (IC50) in [8] of 25 µM.

In the case of `CC[C@H](C)C1=C(O)[N@+]2([O-])Oc3ccc(-c4c(O)c(O)c(-c5ccc(OC(C)=O)cc5)c(OC(C)=O)c4OC(C)=O)cc3O[C@@]2([C@@H](C)CC)C(=O)N1O`, the Activity in experiment [9] stood at 96%.

As to `N=C(N)NCCCCCNc1noc(Cc2c[nH]c3ccccc23)n1`, the inhibition in [22] is 97%; in [23], 45%; in experiment [24] it was 16%; in experiment [25], 96%.

As for `CN[C@@H]1CSCON2CCc3c([nH]c4ccc(O)c(Br)c34)[C@H]12`, the Activity in experiment [1] is 100%. For the same compound, the zone of inhibition at 20 µg/disc in experiment [2] was found to be 41 mm.

Take `COc1cc(CCN(C)C)c2sc3c(OC)c(OC)c(SC)c(CCN(C)C)c3ssc2c1O` [LISSOCLIBADIN 5]: the zone of inhibition at 50 µg/disc in [3] was 11.6 mm; in [4] it was 15.8 mm.

As to `CO[C@H]1C[C@H](O[C@@H]2[C@@H](C)O[C@@]3(C[C@H]2OC)OCO[C@@H]2C[C@H](O[C@@H](C)[C@@]4(O)CC[C@H]5[C@@H]6CC=C7C[C@@H](O)CC[C@]7(C)[C@H]6CC[C@@]54C)O[C@H](C)[C@H]2O3)O[C@H](C)[C@H]1O[C@H]1C[C@@H](O)[C@H](O[C@H]2C[C@H](OC)[C@H](O[C@H]3C[C@@H](OC)[C@H](O)[C@@H](C)O3)[C@@H](C)O2)[C@@H](C)O1`, the IC50 in experiment [10] was 0.29 to 1.97 µM.

In turn, `C=C[C@H](O)Cc1nsc(C2=CCCS[C@@]23C(=O)Nc2ccccc23)n1` yielded a half-maximal inhibitory concentration (IC50) in experiment [26] of 25.9 µM.

Turning to `COc1c(OC)c2c(c(CCN(C)C)c1SC)SSSSS2`, the half-inhibitory concentration (IC50) was greater than 25 µg/mL in experiment [7] and 0.15 µM in experiment [5]. For the same compound, the zone of inhibition at 50 µg/disc in experiment [11], in [12], in [13], in experiment [3] and in experiment [4] was 14.2 to 30 mm each time.

As for `COC1=C[C@@H](C)O[C@@H](O[C@H]2CC[C@@]3(C)C(=CC[C@@H]4[C@@H]3CC[C@@]3(C)[C@H]4CC[C@]3(O)[C@H](C)O[C@H]3C[C@H]4OCO[C@@]5(C[C@@H](OC)[C@H](O[C@H]6C[C@H](OC)[C@H](O[C@H]7C[C@@H](O)[C@H](O[C@H]8C[C@H](OC)[C@H](O[C@H]9C[C@H](O)[C@H](OC(C)=O)[C@@H](C)O9)[C@@H](C)O8)[C@@H](C)O7)[C@@H](C)O6)[C@@H](C)O5)O[C@@H]4[C@@H](C)O3)C2)C1=O`, the IC50 in experiment [10] is 0.29 to 1.97 µM.

For the compound `C1SCSSCS1`, the MIC in [27] was determined as 50 µg/mL (≈ 294 µM).

The term IC50 denotes the concentration needed to halve the response being measured. As usually defined, the MIC is the least concentration at which growth counts as inhibited. Read a low MIC as greater potency. Broadly, the inhibition is the drop in the measured response relative to a control, in per cent. A lower inhibition goes with a response near the control.

(Values after ChEMBL document CHEMBL4265876, “Natural Products with Heteroatom-Rich Ring Systems” (J Nat Prod, 2017).)
